Literature values in article PMC2677997 (Bioorganic & medicinal chemistry, 2009).

Tested on: SNARE cleavage in neuronal cells
Conditions: cited from earlier work

For `O=C(/C=C/c1ccc(Cl)cc1Cl)NO` [Compound 2, 2,4-dichlorocinnamic hydroxamic acid], the “activity in a cellular assay” value is given as “inactive or cytotoxic”.
